Values quoted from earlier work, collected in patent publication US7659300B2, “Monocyclic anilide spirolactam CGRP receptor antagonists” (Merck Sharp & Dohme Corp., priority 2004, dated 2010).
No end group written: not given here.

Legend:
facial blood flow [1] = conditions: rat, trigeminal ganglion stimulation (Escott et al. 1995)
middle meningeal artery = conditions: rats, electrical stimulation of the dura mater, prior administration (Williamson et al. 1997)
migraine = conditions: clinical studies, intravenously administered (Olesen et al. 2004)
facial blood flow [2] = conditions: marmoset, electrical stimulation of the trigeminal ganglion (Doods et al. 2000)

| Compound | increase of facial blood flow (facial blood flow [1]) | increase of the diameter of the middle meningeal artery (middle meningeal artery) | acute treatment of migraine (migraine) | increase in facial blood flow (facial blood flow [2]) |
| --- | --- | --- | --- | --- |
| CGRP(8-37): a peptide CGRP antagonist; fragment of CGRP that lacks seven N-terminal amino acid residues (VTHRLAGLLSRSGGVVKNNFVPTNVGSKAF; ends and bridges not checked; UniProt P06881 90-119, looked up, fragment) | inhibited | blocked |  |  |
| NCCCC[C@H](NC(=O)[C@@H](Cc1cc(Br)c(O)c(Br)c1)NC(=O)N1CCC(N2Cc3ccccc3NC2=O)CC1)C(=O)N1CCN(c2ccncc2)CC1 [BIBN4096BS] |  |  | safe and effective acute treatment for migraine | blocked |
